For data set [1], the target named is T1, bile acid glucosyltransferase activity of GBA2 (Homo sapiens, UniProt Q9HCG7).
T1 construct: expressed in transfected cells; host or cells: COS-7
T1 sequence (Q9HCG7 1-927): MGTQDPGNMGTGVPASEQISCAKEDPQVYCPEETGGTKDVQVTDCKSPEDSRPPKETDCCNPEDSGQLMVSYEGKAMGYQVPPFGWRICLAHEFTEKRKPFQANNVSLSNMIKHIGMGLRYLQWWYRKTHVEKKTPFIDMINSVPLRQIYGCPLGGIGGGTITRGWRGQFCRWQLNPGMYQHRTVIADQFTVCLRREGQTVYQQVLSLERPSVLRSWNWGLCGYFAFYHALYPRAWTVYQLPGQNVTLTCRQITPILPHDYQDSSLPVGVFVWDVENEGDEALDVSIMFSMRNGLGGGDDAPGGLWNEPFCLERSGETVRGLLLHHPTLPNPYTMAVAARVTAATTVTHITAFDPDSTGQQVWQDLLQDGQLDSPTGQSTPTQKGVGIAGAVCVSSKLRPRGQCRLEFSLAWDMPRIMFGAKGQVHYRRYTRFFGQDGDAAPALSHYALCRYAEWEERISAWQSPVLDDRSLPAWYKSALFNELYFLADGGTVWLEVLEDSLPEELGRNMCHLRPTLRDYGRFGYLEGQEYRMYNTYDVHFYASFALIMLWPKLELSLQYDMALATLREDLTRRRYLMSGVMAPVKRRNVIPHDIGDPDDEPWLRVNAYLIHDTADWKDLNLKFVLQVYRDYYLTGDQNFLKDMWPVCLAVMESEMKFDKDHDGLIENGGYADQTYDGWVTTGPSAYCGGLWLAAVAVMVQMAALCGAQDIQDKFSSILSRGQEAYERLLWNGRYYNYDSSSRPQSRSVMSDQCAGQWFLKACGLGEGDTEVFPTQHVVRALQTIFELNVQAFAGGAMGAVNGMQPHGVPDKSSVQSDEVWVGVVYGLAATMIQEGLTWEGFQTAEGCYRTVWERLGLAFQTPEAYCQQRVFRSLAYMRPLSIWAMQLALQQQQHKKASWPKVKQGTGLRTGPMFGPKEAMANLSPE
The data set can be described thus: Bile acid glucosyltransferase activity, human enzyme expressed in COS-7-cells. It counts as biochemical. Particulars: read-out: Transferase activity % of control.

Data set [2] has as its target T2, bile acid β-glucosidase activity of GBA2 (Homo sapiens, UniProt Q9HCG7).
T2 construct: expressed in transfected cells; host or cells: COS-7
T2 sequence (Q9HCG7 1-927): T1 sequence (Q9HCG7 1-927)
The data set can be described thus: Bile acid β-glucosidase activity, human enzyme expressed in COS-7-cells. It counts as biochemical. Particulars: read-out: β-Glucosidase activity % of control.

The target in data set [3] is T3, bile acid β-glucosidase activity of GBA2 (Mus musculus, UniProt Q69ZF3).
T3 construct: expressed in transfected cells; host or cells: COS-7
T3 sequence (Q69ZF3 1-918): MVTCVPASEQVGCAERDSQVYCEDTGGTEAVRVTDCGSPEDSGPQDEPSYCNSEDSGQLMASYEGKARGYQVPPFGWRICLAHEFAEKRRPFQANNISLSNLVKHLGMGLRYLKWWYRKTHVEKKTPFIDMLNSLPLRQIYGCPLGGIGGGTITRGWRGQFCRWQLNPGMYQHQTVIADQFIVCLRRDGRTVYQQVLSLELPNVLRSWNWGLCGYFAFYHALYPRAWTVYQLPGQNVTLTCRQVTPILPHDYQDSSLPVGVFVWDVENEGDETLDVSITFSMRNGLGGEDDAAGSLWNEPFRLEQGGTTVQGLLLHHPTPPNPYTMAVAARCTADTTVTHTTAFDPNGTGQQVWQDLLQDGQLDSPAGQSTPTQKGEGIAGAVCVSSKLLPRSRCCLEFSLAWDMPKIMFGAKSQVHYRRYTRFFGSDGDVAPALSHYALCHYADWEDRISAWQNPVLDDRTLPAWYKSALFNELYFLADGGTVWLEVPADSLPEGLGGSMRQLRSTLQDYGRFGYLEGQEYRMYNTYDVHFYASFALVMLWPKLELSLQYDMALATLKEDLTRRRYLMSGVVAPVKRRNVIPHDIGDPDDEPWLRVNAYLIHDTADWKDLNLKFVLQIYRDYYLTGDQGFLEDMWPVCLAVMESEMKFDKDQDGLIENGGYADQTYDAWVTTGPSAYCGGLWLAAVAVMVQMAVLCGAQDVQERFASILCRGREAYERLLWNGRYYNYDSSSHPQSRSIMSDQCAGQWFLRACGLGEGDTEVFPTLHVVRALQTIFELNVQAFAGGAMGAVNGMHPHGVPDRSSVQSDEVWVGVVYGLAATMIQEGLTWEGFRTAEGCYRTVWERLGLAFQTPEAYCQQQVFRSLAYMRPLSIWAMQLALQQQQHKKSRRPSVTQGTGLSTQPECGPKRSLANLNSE
The data set can be described thus: Bile acid β-glucosidase activity, murine enzyme expressed in COS-7-cells. Particulars: read-out: β-Glucosidase activity % of control. It counts as biochemical.

Data set [4] addresses T4, bile acid glucosyltransferase activity of GBA2 (Mus musculus, UniProt Q69ZF3).
T4 sequence (Q69ZF3 1-918): T3 sequence (Q69ZF3 1-918)
The data set can be described thus: Bile acid glucosyltransferase activity, liver microsomal enzyme from wild type mouse. Also noted: from tissue; host or cells: mouse liver microsomes (wild type). Particulars: read-out: Transferase activity % of control. It counts as biochemical. For orientation: Liver microsomes are vesicles of endoplasmic reticulum, rich in cytochrome P450 enzymes.

Data set [5] has as its target T4, bile acid glucosyltransferase activity of GBA2. The data set can be described thus: Bile acid glucosyltransferase activity, murine enzyme expressed in COS-7-cells. It counts as biochemical. Also noted: expressed in transfected cells; host or cells: COS-7. Particulars: read-out: Transferase activity % of control.
The subject of data set [6] is bile acid β-glucosidase activity of GBA2. The data set can be described thus: Bile acid β-glucosidase activity, liver microsomal enzyme from wild type mouse. It counts as biochemical.
The subject of the next data set is GBA2. The data set can be described thus: Summary statement on the screening for GBA2 antagonists. It counts as biochemical. Particulars: summary of Example 22.
The subject of data set [7] is liver microsomal β-glucosidase activity from GBA2 (-/-) mice. The data set can be described thus: Liver microsomal β-glucosidase activity from GBA2 (-/-) mice. Particulars: liver microsomes from GBA2 (-/-) mice. It counts as biochemical.
A further data set deals with rodents. Particulars: administered to rodents; cited from earlier work.
The subject of the next data set is mice. Particulars: administration to mice; cited from earlier work.

For the compound `CCCCCCCCCCCCN1C[C@H](O)[C@@H](O)[C@H](O)[C@H]1CO` [Dodecyl-dNM, dodecyldeoxynojirimycin], the remaining activity at 0.002 µM in [1] (0.002 µM) stood at 50.7%. Besides, the remaining activity at 0.0002 µM in [2] is 49.3%. Besides, the remaining activity at 0.0001 µM in [3] (0.0001 µM) turned out to be 59.5%. Moreover, the remaining activity at 0.0006 µM in data set [4] (0.0006 µM) was 49.4%. For the same compound, in data set [5] (0.001 µM), the remaining activity at 0.001 µM was 47.3%. The “β-Glucosidase activity % of control” value was found to be 51.9% in data set [6] (0.001 µM) and 57.8% in data set [7] (0.2 µM). Also, in the data set on GBA2, the “inhibitory effect on β-glucosidase and transferase activity (especially on GBA2)” value is given as “considerable inhibitory effect”.
Regarding `O[C@H]1[C@H](O)[C@@H](O)[C@@H]2O[C@@H]2[C@@H]1O` (racemic) [Conduritol B epoxide, reference compound], the remaining activity at 2000 µM in [1] (2000 µM) is 64.6%; in data set [4] (2000 µM), 60%; in data set [5] (2000 µM), 48.6%. Further, the remaining activity at 1000 µM in [2] (1000 µM, human enzyme expressed in COS-7-cells) was determined as 55.7%; in data set [3] (1000 µM), 44.9%. Besides, the “β-Glucosidase activity % of control” value in [6] (50 µM) is recorded as 46.9%; in [7] (20 µM), 58.9%.
For `CCCCN1C[C@H](O)[C@@H](O)[C@H](O)[C@H]1CO` [Butyl-dNM, N-butyldeoxynojirimycin], the globozoospermia result in the data set on rodents was “causes globozoospermia”.
For `OC[C@H]1NC[C@H](O)[C@@H](O)[C@@H]1O` [1-Deoxynojirimycin], the “male infertility and globozoospermia” value in the data set with mice is “causes male infertility and globozoospermia”.
